Source: patent EP3974434B1, “MACROLIDE DERIVATIVES, PREPARATION METHOD AND APPLICATION THEREOF” (Zhejiang Hisun Pharmaceutical Co., Ltd., priority 2019, dated 2020)

Key:
Type in all cases: biochemical
TRKC(G623R) = target: T1, TRKC(G623R) (Homo sapiens, UniProt Q16288, G623R); assay: HTRF KinEASE-TK kinase activity inhibition assay, TRKC(G623R); settings: ATP 100 µM
T1 construct: purchased SignalChem N18-12CH-10
Text: (§1) The following method was used to determine the inhibition degrees of the compounds of the present invention on the activity of recombinant human NTRK family kinase in vitro. In this method, HTRF®KinEASE-TK tyrosine kinase kit (article number: 62TK0PEB) of Cisbio company was used, and the principle of the kit was based on time-resolved fluorescence resonance energy transfer (TF-FRET), and the inhibition of the compounds on the activity of the NTRK kinase was reflected by determining a phosphorylation degree of a biotinylated polypeptide substrate mediated by NTRK kinase. For detailed experimental operation, please refer to the kit instruction. Recombinant human wild-type NTRK proteins were purchased from Carna bioscience (the article numbers were TRKA #08-186, TRKB #08-187 and TRKC #08-197 respectively), and recombinant human mutant NTRK proteins were purchased from SignalChem (the article numbers were TRKA G595R #N16-12BG-10, TRKA G667C # N16-12CG-10, and TRKC G623R # N18-12CH-10 respectively).
The experimental methods were operated according to the steps in the kit instruction, and were briefly described as follows: a test compound was first dissolved in DMSO to prepare a storage solution, and then diluted in gradient with a buffer provided in the kit. A final concentration of the test compound in the reaction system ranged from 1,000 nM to 0.004 nM. An ATP Km value concentration of each NTRK protein was determined by using an ATP solution diluted in gradient (Sangon Biotech (Shanghai) Co., Ltd., A600311). According to the Km value obtained, the ATP concentrations in the reaction system were set as 100 µM for TRKA, 10 µM for TRKB, 50 µM for TRKC, 7 µM for TRKA(G595R), 1 µM for TRKA(G667C) and 100 µM for TRKC(G623R). The reaction was carried out in a 384-well microplate. Firstly, the compound and a certain amount of corresponding NTRK protein were added to the wells and incubated for 5 minutes to 10 minutes at room temperature. Then, the ATP solution and the biotinylated polypeptide substrate solution were added to the reaction solution and incubated with shaking at room temperature for 60 minutes. […] After incubation, fluorescence intensity values of each well at an excitation wavelength of 304 nm, and emission wavelengths of 620 nm and 665 nM were determined in a TF-FRET mode on a microplate reader. Compared with the fluorescence intensity ratio of a control group (0.1% DMSO), the percentage inhibition rates of the compound at each concentration were calculated, and the IC50 value of the compound was obtained by performing nonlinear regression analysis for logarithmic value of the compound concentration - inhibition rate by GraphPad Prism 5 software, which can be seen in Table 1. […]

TRKB = target: T2, TRKB (Homo sapiens, UniProt Q16620); assay: HTRF KinEASE-TK kinase activity inhibition assay, TRKB; settings: ATP 10 µM
T2 construct: purchased Carna bioscience 08-187
Text: as §1
(§2) The experimental methods were operated according to the steps in the kit instruction, and were briefly described as follows: a test compound was first dissolved in DMSO to prepare a storage solution, and then diluted in gradient with a buffer provided in the kit. A final concentration of the test compound in the reaction system ranged from 1,000 nM to 0.004 nM. An ATP Km value concentration of each NTRK protein was determined by using an ATP solution diluted in gradient (Sangon Biotech (Shanghai) Co., Ltd., A600311). According to the Km value obtained, the ATP concentrations in the reaction system were set as 100 µM for TRKA, 10 µM for TRKB, 50 µM for TRKC, 7 µM for TRKA(G595R), 1 µM for TRKA(G667C) and 100 µM for TRKC(G623R). The reaction was carried out in a 384-well microplate. Firstly, the compound and a certain amount of corresponding NTRK protein were added to the wells and incubated for 5 minutes to 10 minutes at room temperature. Then, the ATP solution and the biotinylated polypeptide substrate solution were added to the reaction solution and incubated with shaking at room temperature for 60 minutes. Then, an anti-phosphorylated tyrosine antibody coupled with a europium compound and streptavidin coupled with modified allophycocyanin XL665 were added to the reaction, and continuously incubated with shaking at room temperature for 1 hour. After incubation, fluorescence intensity values of each well at an excitation wavelength of 304 nm, and emission wavelengths of 620 nm and 665 nM were determined in a TF-FRET mode on a microplate reader. Compared with the fluorescence intensity ratio of a control group (0.1% DMSO), the percentage inhibition rates of the compound at each concentration were calculated, and the IC50 value of the compound was obtained by performing nonlinear regression analysis for logarithmic value of the compound concentration - inhibition rate by GraphPad Prism 5 software, which can be seen in Table 1. Table 1 IC50 data of the compounds of the present invention on TRK enzyme activity inhibition

TRKA = target: T3, TRKA (Homo sapiens, UniProt P04629); assay: HTRF KinEASE-TK kinase activity inhibition assay, TRKA; settings: ATP 100 µM
T3 construct: purchased Carna bioscience 08-186
Text: as §1, §2

TRKC = target: T4, TRKC (Homo sapiens, UniProt Q16288); assay: HTRF KinEASE-TK kinase activity inhibition assay, TRKC; settings: ATP 50 µM
T4 construct: purchased Carna bioscience 08-197
Text: as §1, §2

TRKA(G595R) = target: T5, TRKA(G595R) (Homo sapiens, UniProt P04629, G595R); assay: HTRF KinEASE-TK kinase activity inhibition assay, TRKA(G595R); settings: ATP 7 µM
T5 construct: purchased SignalChem N16-12BG-10
Text: as §1, §2

TRKA(G667C) = target: T6, TRKA(G667C) (Homo sapiens, UniProt P04629, G667C); assay: HTRF KinEASE-TK kinase activity inhibition assay, TRKA(G667C); settings: ATP 1 µM
T6 construct: purchased SignalChem N16-12CG-10
Text: as §1, §2

T1 sequence (Q16288 32-839 G623R): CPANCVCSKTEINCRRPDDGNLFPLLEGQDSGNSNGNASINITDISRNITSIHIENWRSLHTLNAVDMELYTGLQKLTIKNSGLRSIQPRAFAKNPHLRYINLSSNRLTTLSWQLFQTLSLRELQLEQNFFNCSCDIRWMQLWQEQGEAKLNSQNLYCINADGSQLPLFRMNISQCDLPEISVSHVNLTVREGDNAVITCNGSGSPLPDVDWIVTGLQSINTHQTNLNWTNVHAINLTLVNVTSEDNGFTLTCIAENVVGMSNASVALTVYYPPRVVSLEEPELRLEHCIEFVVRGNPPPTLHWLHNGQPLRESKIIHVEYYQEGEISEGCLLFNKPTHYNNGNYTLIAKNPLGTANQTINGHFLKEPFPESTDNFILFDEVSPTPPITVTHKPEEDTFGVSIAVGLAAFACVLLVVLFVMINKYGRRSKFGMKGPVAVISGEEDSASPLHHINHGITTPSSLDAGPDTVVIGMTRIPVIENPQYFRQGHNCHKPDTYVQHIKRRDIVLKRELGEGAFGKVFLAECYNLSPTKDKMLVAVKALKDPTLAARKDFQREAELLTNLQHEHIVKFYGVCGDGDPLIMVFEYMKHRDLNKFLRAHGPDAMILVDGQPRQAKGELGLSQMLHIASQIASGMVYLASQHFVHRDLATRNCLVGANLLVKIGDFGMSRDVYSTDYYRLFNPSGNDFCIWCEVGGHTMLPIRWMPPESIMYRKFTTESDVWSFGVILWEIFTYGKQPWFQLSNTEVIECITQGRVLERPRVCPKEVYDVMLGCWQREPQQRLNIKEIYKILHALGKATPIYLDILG
T6 sequence (P04629 33-796 G667C): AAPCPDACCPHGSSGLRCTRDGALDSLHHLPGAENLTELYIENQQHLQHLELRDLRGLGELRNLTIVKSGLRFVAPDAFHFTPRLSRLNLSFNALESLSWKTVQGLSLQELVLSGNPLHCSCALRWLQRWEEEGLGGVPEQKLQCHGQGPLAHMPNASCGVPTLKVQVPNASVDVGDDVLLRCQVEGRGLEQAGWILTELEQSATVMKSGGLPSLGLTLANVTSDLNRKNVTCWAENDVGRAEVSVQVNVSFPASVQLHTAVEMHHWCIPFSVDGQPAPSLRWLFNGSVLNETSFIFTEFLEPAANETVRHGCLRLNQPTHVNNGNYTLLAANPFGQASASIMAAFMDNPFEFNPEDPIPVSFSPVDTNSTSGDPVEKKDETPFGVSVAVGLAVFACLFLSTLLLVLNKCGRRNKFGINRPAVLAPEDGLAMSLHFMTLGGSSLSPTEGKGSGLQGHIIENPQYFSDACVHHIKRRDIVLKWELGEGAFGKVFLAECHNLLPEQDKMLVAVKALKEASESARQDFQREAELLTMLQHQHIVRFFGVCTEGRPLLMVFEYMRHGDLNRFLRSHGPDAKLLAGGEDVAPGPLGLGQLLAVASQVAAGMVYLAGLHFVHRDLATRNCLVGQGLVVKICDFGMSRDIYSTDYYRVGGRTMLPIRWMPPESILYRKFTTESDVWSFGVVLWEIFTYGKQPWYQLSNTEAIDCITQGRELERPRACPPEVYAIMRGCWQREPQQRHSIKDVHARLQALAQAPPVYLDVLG
T5 sequence (P04629 33-796 G595R): as the sequence (P04629 33-796 G667C) above, with G563R, C635G counted along it
T3 sequence (P04629 33-796): as the sequence (P04629 33-796 G667C) above, with C635G counted along it
T4 sequence (Q16288 32-839): as the sequence (Q16288 32-839 G623R) above, with R592G counted along it
T2 sequence (Q16620 32-822): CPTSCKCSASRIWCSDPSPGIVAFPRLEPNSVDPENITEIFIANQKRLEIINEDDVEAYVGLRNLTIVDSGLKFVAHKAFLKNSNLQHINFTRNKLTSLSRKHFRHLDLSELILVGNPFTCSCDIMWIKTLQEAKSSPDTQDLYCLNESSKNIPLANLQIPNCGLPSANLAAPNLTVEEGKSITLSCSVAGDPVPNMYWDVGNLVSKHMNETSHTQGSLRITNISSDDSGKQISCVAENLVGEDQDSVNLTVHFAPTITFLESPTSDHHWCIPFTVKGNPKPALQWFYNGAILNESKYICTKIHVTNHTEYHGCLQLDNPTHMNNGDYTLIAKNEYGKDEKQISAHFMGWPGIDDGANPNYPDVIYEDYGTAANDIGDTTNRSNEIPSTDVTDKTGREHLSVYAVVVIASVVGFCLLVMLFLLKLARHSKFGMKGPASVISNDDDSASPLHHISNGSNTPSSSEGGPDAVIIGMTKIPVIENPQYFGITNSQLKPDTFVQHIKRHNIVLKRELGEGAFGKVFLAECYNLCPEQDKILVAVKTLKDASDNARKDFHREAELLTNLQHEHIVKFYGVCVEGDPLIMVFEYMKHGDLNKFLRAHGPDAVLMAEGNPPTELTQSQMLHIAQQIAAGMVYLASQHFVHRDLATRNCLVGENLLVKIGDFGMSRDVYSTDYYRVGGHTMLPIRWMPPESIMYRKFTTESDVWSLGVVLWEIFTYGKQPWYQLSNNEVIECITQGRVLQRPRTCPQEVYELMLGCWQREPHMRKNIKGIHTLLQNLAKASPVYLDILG

C[C@H]1Nc2ccn3ncc(c3n2)C(=O)NCC2(C)Cc3cc(Cl)cc1c3O2 (stereo partly drawn) [Example 22, (3R)-6-chloro-3,11-dimethyl-10-oxa-2,13,17,18,21-pentaazapentacyclo[13.5.2.1^8,11.0^4,9.0^18,22]tricosa-1 (21),4,6,8,15(22),16,19-heptaen-14-one]
IC50 (TRKC(G623R)): 7.4 nM
IC50 (TRKB): 0.36 nM
IC50 (TRKA): 0.98 nM
IC50 (TRKC): 0.52 nM
IC50 (TRKA(G595R)): 4.97 nM
IC50 (TRKA(G667C)): 4.6 nM
